The values that follow are results of earlier work, collected in patent publication US6632839B2, “Capsicum based disinfectant and sterilizant” (priority 1997, dated 2003).

For this data set the following is noted: for Solubility in water: water / cold water.

Like-named read-outs stand apart in the source and are kept apart here.

As to `COc1cc(CNC(=O)CCCC/C=C/C(C)C)ccc1O` [Capsaicin, N-vanillyl-8-methyl-6-(E)-noneamide], the “Solubility in alcohol, fats, oils” value was “very soluble in fats, oils and alcohol”; the Solubility in water result is given as “sparingly soluble in water”. For the same compound, where the note is “listed as capsaicin”, the “Solubility in alcohol, fats, oils” value is reported as “soluble in alcohol” and the Solubility in water result is “insoluble in cold water”.
